Test results taken from publication PMC5613053 (Investigational New Drugs, 2017).

Biological target: T1, phosphorylated AXL (Homo sapiens, UniProt P30530)
T1 construct: expressed in transfected cells; host or cells: MV4-11-AXL cells (MV4-11 exogenously expressing AXL)
T1 sequence (P30530 26-894): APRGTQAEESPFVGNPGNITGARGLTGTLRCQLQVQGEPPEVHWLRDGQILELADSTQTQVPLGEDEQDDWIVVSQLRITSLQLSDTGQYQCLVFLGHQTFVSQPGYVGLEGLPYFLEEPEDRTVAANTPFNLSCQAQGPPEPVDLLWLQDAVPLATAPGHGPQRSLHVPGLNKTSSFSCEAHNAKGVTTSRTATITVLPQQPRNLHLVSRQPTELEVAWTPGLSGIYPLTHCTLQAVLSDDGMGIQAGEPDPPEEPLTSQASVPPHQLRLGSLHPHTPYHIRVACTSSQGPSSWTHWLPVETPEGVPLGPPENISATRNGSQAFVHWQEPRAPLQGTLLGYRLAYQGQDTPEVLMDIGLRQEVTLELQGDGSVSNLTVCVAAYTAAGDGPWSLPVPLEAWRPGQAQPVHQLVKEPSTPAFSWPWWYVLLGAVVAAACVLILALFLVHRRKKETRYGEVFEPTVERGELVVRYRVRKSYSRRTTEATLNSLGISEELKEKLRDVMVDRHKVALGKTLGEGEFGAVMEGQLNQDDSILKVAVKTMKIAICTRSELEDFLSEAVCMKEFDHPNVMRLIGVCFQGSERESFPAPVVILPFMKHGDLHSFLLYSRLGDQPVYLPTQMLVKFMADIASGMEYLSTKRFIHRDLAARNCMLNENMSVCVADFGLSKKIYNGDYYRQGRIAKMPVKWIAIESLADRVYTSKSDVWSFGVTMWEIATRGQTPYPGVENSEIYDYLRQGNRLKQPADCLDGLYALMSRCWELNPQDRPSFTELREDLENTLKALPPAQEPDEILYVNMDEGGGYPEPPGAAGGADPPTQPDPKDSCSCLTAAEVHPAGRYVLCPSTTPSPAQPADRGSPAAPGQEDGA
Test: Immunoblot of phospho-AXL in MV4-11-AXL cells
Assay type: cell-based
Conditions: 4 h, MV4–11 cells expressing exogenous AXL
Description: Cells were treated for 4 h prior to cell lysate preparation in RIPA buffer supplemented with phosphatase / protease inhibitors. The protein lysates were subsequently electrophoresed on 7.5% gels and transferred to PVDF membranes.
All membranes were blocked using either Blocking One or Blocking One-P (Nacalai Tesque Inc., Kyoto, Japan) for 1 h prior to an overnight incubation with primary antibody. Membranes were incubated overnight at 4°C with one of the following antibodies: anti-FLT3 antibody (Abcam), anti-phosphorylated pan-tyrosine, anti-ERK, anti-phospho-ERK, anti-STAT5, anti-phospho-STAT5, anti-AKT, anti-phospho-AKT, anti-AXL, anti-phospho-AXL, or anti-actin. The membranes were then washed with 1× TBS Tween-20 (TBS-T) Buffer (Thermo Fisher Scientific Inc., Rockford, IL) and incubated with an appropriate HRP-linked secondary antibody (Cell Signaling Technology) for 1 h at room temperature. After a final wash, ECL Western Blotting Detection Reagent ECL-prime (GE Healthcare, Fairfield, CT) were applied to the membranes and signals were detected with a CCD camera (ImageQuant LAS4000; GE Healthcare). Signal intensity was then quantified using ImageQuant™ TL software (GE Healthcare). The study was performed once in triplicate, and the mean percentage of phosphorylated protein to total protein relative to that in vehicle-treated cells was calculated.
Fig. S1. […] Protein lysates were collected in RIPA buffer and immunoblotting was performed to detect both phosphorylated and total levels of AXL (triplicate).

CCc1nc(C(N)=O)c(Nc2ccc(N3CCC(N4CCN(C)CC4)CC3)c(OC)c2)nc1NC1CCOCC1 [gilteritinib]
Decrease of phosphorylated AXL levels (1 nM): 38% | Decrease of phosphorylated AXL levels (10 nM): 29% | Decrease of phosphorylated AXL levels (100 nM): 22%
